Drawing on patent publication US11485736B2 (KSQ Therapeutics, Inc., priority 2018, dated 2022), this text covers half-life and solubility for 28 molecules.

Where two headings read alike, the source gives them in different places.

As a reminder, the solubility is how much of the substance goes into solution per volume.

Data set [1] in a line: Liver microsomal stability, human liver microsomes. Type of data set: in vitro ADME. As to conditions: 1 μM compound, NADPH, read-out: t1/2 (min) in HLM. The protocol: (§1) Certain Compounds of the Disclosure were assessed for ADME metabolic stability in human liver microsomes (HLM) and rat liver microsomes (RLM).
(§2) Samples were prepared by adding 222.5 μL of a master solution (100 mM phosphate buffer and 1 mg/mL liver microsomes (HLM or RLM)) and 25 μL of a 10 mM NADPH solution to incubation plates, which were then warmed for 10 min. Each compound was separately dissolved in DMSO to prepare 10 mM stock solutions, which were then diluted to 100 μM with acetonitrile. A reaction was started by adding 2.5 μL of the 100 μM solution of each compound to separate incubation plates such that the final concentration of for each compound in each plate was 1 μM.
(§3) 25 μL aliquots of each sample were taken at 0.5, 5, 10, 15, 20 and 30 minutes, and the reaction was stopped by adding 5 volumes of cold acetonitrile with IS (100 nM alprazolam, 200 nM caffeine and 100 nM tolbutamide). The samples were then centrifuged at 3,220 G for 30 minutes, and 100 μL of the supernatant fluid was mixed with 100 μL of ultra-pure H2O.
(§4) The samples were then analyzed by LC-MS/MS. Peak areas were determined from extracted ion chromatograms. Slope values (k) were determined by linear regression of the natural logarithm of the remaining percentage of the compound vs. incubation time curve. […] The in vitro half-life (min) was converted into the in vitro intrinsic clearance (in vitro CLint, in μL/min/mg protein) using the following equation: […]

Data set [2] can be described thus: ADME solubility determination at pH 2.0 and pH 7.4. The data set is classed as physicochemical. As to conditions: aqueous buffer, thermodynamic from solid, LC-MS/MS. The protocol: Certain Compounds of the Disclosure were assessed for ADME solubility at pH 2.0 and pH 7.4.
Stock solutions were prepared by adding each compound to DMSO at a concentration of 10 mM. Samples were prepared by adding 50 μL of each stock solution to separate vials. The vials were loaded onto a 96-well rack and dried. 500 μL of Phosphate Buffered Saline (PBS) pH 7.4 or PBS pH 2.0 were added into each vial. The vials were then shaken at 25° C. and 1,100 rpm for 24 hours.
After 24 hours, the vials were centrifuged at 3220 G and 25° C. for 30 minutes. The supernatant fluid was analyzed by LC-MS/MS against a standard of known concentration. The solubility of each sample was then calculated using the equation below:
[formula] where DF is the dilution factor.

The nature of data set [3]: Liver microsomal stability, rat liver microsomes. The data set is classed as in vitro ADME. The settings on record: 1 μM compound, NADPH, read-out: t1/2 (min) in RLM. How it is done:
as §1, §2, §3, §4

[4] abbreviates: PBS pH 2.0, shaken at 25° C. for 24 hours, read-out: Solubility at pH 2.0.
Where [5] appears, read: PBS pH 7.4, shaken at 25° C. for 24 hours, read-out: Solubility at pH 7.4.

In the case of `COc1ncnc(C)c1-c1ncc2cnn(Cc3ccc(-n4nc(C(F)(F)F)cc4C)cc3)c2n1` [Example 48], the half-life at 1 μM in data set [1] and in data set [3] was over 25 min each time. Also, the solubility at 24 h in data set [2] (setting [4]) was over 10 µM; in data set [2] (setting [5]), under 10 µM.
For the molecule `Cc1cc(C(F)(F)F)nn1-c1ccc(Cn2ncc3cnc(-c4cccnc4C#N)nc32)cc1` [Example 49], the half-life at 1 μM in data set [1] and in data set [3] was over 25 min in each case. The solubility at 24 h in data set [2] (setting [4]) and in data set [2] (setting [5]) was under 10 µM in each case.
For the molecule `COc1ncnc(C2CC2)c1-c1ncc2cnn(Cc3ccc(-n4nc(C(F)F)cc4C)cc3)c2n1` [Example 50], the half-life at 1 μM in data set [1] and in data set [3] was over 25 min in each case. For the same molecule, the solubility at 24 h in data set [2] (setting [4]) and in data set [2] (setting [5]) was under 10 µM each time.
For `CCn1cc(C(F)(F)F)nc1-c1ccc(Cn2ncc3cnc(-c4c(OC)ncnc4C4CC4)nc32)cc1` [Example 51], the half-life at 1 μM in data set [1] and in data set [3] was over 25 min each time. Also, the solubility at 24 h in data set [2] (setting [4]) was over 10 µM; in data set [2] (setting [5]), under 10 µM.
Turning to `CCn1cc(C(F)(F)F)nc1-c1ccc(Cn2ncc3c(OC)nc(-c4c(OC)ncnc4C4CC4)nc32)cc1` [Example 52], the half-life at 1 μM in data set [1] is over 25 min; in data set [3] it was under 25 min. Moreover, the solubility at 24 h in data set [2] (setting [4]) and in data set [2] (setting [5]) was under 10 µM throughout.
As to `CCn1cc(C(F)(F)F)nc1-c1ccc(Cn2ncc3c(C)nc(-c4c(OC)ncnc4C4CC4)nc32)cc1` [Example 53], the half-life at 1 μM in data set [1] and in data set [3] was over 25 min in each case. In addition, the solubility at 24 h in data set [2] (setting [4]) and in data set [2] (setting [5]) was under 10 µM throughout.
Take `CCn1cc(C(F)(F)F)nc1-c1ccc(Cn2ncc3cnc(-c4c(OCCF)ncnc4C4CC4)nc32)cc1` [Example 54]: the half-life at 1 μM in data set [1] and in data set [3] was under 25 min throughout. The solubility at 24 h in data set [2] (setting [4]) and in data set [2] (setting [5]) was under 10 µM each time.
As to `COc1ncnc(C2CC2)c1-c1ncc2cnn(Cc3ccc(-c4nc(C(F)(F)F)nn4C)cc3)c2n1` [Example 56], the half-life at 1 μM in data set [1] and in data set [3] was over 25 min each time. Besides, the solubility at 24 h was over 10 µM in data set [2] (phosphate buffered saline, PBS pH 2.0, shaken at 25° C. for 24 hours, read-out: Solubility at pH 2.0) and under 10 µM in data set [2] (phosphate buffered saline, PBS pH 7.4, shaken at 25° C. for 24 hours, read-out: Solubility at pH 7.4).
`COc1ncnc(C2CC2)c1-c1ncc2cnn(Cc3ccc(-c4nc(C(F)(F)F)nn4C)c(F)c3)c2n1` [Example 57]: the half-life at 1 μM in data set [1] and in data set [3] was over 25 min each time. Besides, the solubility at 24 h in data set [2] (setting [4]) and in data set [2] (setting [5]) was over 10 µM each time.
On to `COc1ncnc(C2CC2)c1-c1ncc2cnn(Cc3ccc(-c4nc(C(F)(F)F)nn4C(C)C)cc3)c2n1` [Example 58], for which the half-life at 1 μM in data set [1] and in data set [3] was over 25 min each time. In addition, the solubility at 24 h in data set [2] (setting [4]) and in data set [2] (setting [5]) was under 10 µM in each case.
As for `CCn1cc(C(F)(F)F)nc1-c1ccc(Cn2ncc3cnc(-c4c(OC(C)(C)C)ncnc4C4CC4)nc32)cc1` [Example 59], the half-life at 1 μM in data set [1] and in data set [3] was under 25 min each time. In addition, the solubility at 24 h in data set [2] (setting [4]) and in data set [2] (setting [5]) was under 10 µM throughout.
For `CCn1cc(C(F)(F)F)nc1-c1ccc(Cn2ncc3cnc(-c4c(OC(F)F)ncnc4C4CC4)nc32)cc1` [Example 61], the half-life at 1 μM in data set [1] is over 25 min; in data set [3] it was under 25 min. The solubility at 24 h in data set [2] (setting [4]) and in data set [2] (setting [5]) was under 10 µM in each case.
Take `CCn1cc(C(F)(F)F)nc1-c1ccc(Cn2ncc3cnc(-c4c(OC5CC5)ncnc4C4CC4)nc32)cc1` [Example 63]: the half-life at 1 μM is over 25 min in data set [1] and under 25 min in data set [3]. For the same molecule, the solubility at 24 h was over 10 µM in data set [2] (setting [4]) and under 10 µM in data set [2] (setting [5]).
Turning to `CCn1cc(C(F)(F)F)nc1-c1ccc(Cn2ncc3cnc(-c4c(OC5CCC5)ncnc4C4CC4)nc32)cc1` [Example 64], the half-life at 1 μM in data set [1] and in data set [3] was under 25 min throughout. The solubility at 24 h in data set [2] (setting [4]) and in data set [2] (setting [5]) was under 10 µM each time.
Take `[2H]C([2H])([2H])Oc1ncnc(C2CC2)c1-c1ncc2cnn(Cc3ccc(-c4nc(C(F)(F)F)cn4CC)cc3)c2n1` [Example 67]: the half-life at 1 μM in data set [1] and in data set [3] was over 25 min each time. The solubility at 24 h in data set [2] (setting [4]) is over 10 µM; in data set [2] (setting [5]), under 10 µM.
For the molecule `CCn1cc(C(F)(F)F)nc1-c1ccc(Cn2ncc3cnc(-c4c(C5CC5)cnn4CC)nc32)cc1` [Example 68], the half-life at 1 μM in data set [1] and in data set [3] was under 25 min throughout. For the same molecule, the solubility at 24 h in data set [2] (setting [4]) and in data set [2] (setting [5]) was under 10 µM throughout.
Consider `COc1ncnc(C2CC2)c1-c1ncc2cnn(Cc3ccc(-c4nc(C#N)cn4C)cc3)c2n1` [Example 69], for which the half-life at 1 μM in data set [1] and in data set [3] was under 25 min throughout. In addition, the solubility at 24 h in data set [2] (setting [4]) and in data set [2] (setting [5]) was over 10 µM each time.
Regarding `COc1ncnc(C2CC2)c1-c1ncc2cnn(Cc3ccc(-n4nc(C#N)cc4OC)cc3)c2n1` [Example 70], the results for the half-life at 1 μM in data set [1] and in data set [3] were over 25 min and under 25 min, respectively. Besides, the solubility at 24 h in data set [2] (setting [4]) and in data set [2] (setting [5]) was under 10 µM each time.
As for `COc1ncnc(C2CC2)c1-c1ncc2cnn(Cc3ccc(-n4nc(C(F)(F)F)cc4C#N)cc3)c2n1` [Example 71], the half-life at 1 μM in data set [1] and in data set [3] was over 25 min throughout. Further, the solubility at 24 h in data set [2] (setting [4]) and in data set [2] (setting [5]) was under 10 µM in each case.
Take `COc1cn(C(C)C)c(-c2ccc(Cn3ncc4cnc(-c5c(OC)ncnc5C5CC5)nc43)cc2)n1` [Example 74]: the half-life at 1 μM in data set [1] and in data set [3] was under 25 min in each case. Also, the solubility at 24 h in data set [2] (setting [4]) and in data set [2] (setting [5]) was over 10 µM in each case.
Turning to `CCn1cc(C(F)(F)F)nc1-c1ccc(Cn2ncc3cnc(-c4c(OC)ncnc4C4CC4)nc32)cn1` [Example 75], the half-life at 1 μM in data set [1] and in data set [3] was over 25 min each time. Further, the solubility at 24 h in data set [2] (setting [4]) and in data set [2] (setting [5]) was under 10 µM in each case.
Turning to `CCOc1cc(C(F)(F)F)nn1-c1ccc(Cn2ncc3cnc(-c4c(OC)ncnc4C4CC4)nc32)cc1` [Example 76], the half-life at 1 μM in data set [1] and in data set [3] was over 25 min in each case. Further, the solubility at 24 h in data set [2] (setting [4]) and in data set [2] (setting [5]) was under 10 µM in each case.
As for `COCCOc1cc(C(F)(F)F)nn1-c1ccc(Cn2ncc3cnc(-c4c(OC)ncnc4C4CC4)nc32)cc1` [Example 77], the half-life at 1 μM in data set [1] and in data set [3] was under 25 min in each case. In addition, the solubility at 24 h in data set [2] (setting [4]) and in data set [2] (setting [5]) was under 10 µM each time.
In the case of `COc1ncnc(C2CC2)c1-c1ncc2cnn(Cc3ccc(-n4nc(C(F)(F)F)cc4OCCO)cc3)c2n1` [Example 78], the half-life at 1 μM in data set [1] and in data set [3] was over 25 min throughout. The solubility at 24 h in data set [2] (setting [4]) and in data set [2] (setting [5]) was under 10 µM each time.
Regarding `COc1ncnc(C2CC2)c1-c1ncc2cnn(Cc3ccc(-n4nc(C(F)(F)F)cc4OC)nc3)c2n1` [Example 79], the half-life at 1 μM in data set [1] and in data set [3] was over 25 min in each case. The solubility at 24 h in data set [2] (setting [4]) and in data set [2] (setting [5]) was under 10 µM each time.
Take `COc1cnn(C2CC2)c1-c1ncc2cnn(Cc3ccc(-c4nc(C(F)(F)F)cn4C)cc3)c2n1` [Example 81]: the half-life at 1 μM in data set [1] and in data set [3] was under 25 min each time. Further, the solubility at 24 h in data set [2] (setting [4]) and in data set [2] (setting [5]) was under 10 µM throughout.
For `CCn1cc(C(F)(F)F)nc1-c1ccc(Cn2ncc3cnc(-c4c(OC)cnn4C4CC4)nc32)cc1` [Example 82], the half-life at 1 μM in data set [1] and in data set [3] was under 25 min in each case. Also, the solubility at 24 h in data set [2] (setting [4]) and in data set [2] (setting [5]) was under 10 µM throughout.
As to `COc1cnn(C2CC2)c1-c1ncc2cnn(Cc3ccc(-c4nc(C(F)(F)F)cn4C(C)C)cc3)c2n1` [Example 83], the half-life at 1 μM in data set [1] and in data set [3] was under 25 min throughout. Besides, the values for the solubility at 24 h in data set [2] (setting [4]) and in data set [2] (setting [5]) were over 10 µM and under 10 µM, respectively.
